# Test results from patent US20140127316A1, “PROPOLIS AND CAFFEIC ACID PHENETHYL ESTER AND USES THEREOF” (NEW YORK UNIVERSITY, priority 2011, published 2014).
# What was measured:
# [1] = tested on: estrogen receptor (ER); experiment: ER re-expression in MDA-231 cells by immunofluorescence and RT-PCR; type: cell-based; details: ER-negative MDA-231 cells, FIG. 4A
# [2] = tested on: histone deacetylases (HDAC); experiment: Western blotting of acetylated histone proteins in breast cancer cell lines; type: cell-based, human; details: MDA-231 and MCF-7 cells, FIG. 2
# From the text: (§1) These cell lines serve as in vitro breast cancer models. […] This typically signifies the inhibition of histone deacetylases and is used as a readout of this process via Western blotting. […] Further, FIGS. 3 and 4 provide additional evidence of the epigenetic changes that occur with CAPE and propolis resulting from HDAC inhibition. FIG. 3 depicts the downregulation of the estrogen receptor (ER) and progesterone receptor (PR) in MCF-7 cells and the downregulation of the epidermal growth factor receptor (EGFR) in MDA-231 cells (FIG. 4B). The re-expression of a previously silenced gene, (ER), a key function of HDAC inhibition, is depicted by the upregulation of the estrogen receptor in the ER-negative MDA-231 cell line (FIG. 4A). Furthermore, we have shown the HDAC inhibitor activity is not just restricted to breast cancer, but also in lymphoma (FIG. 9).
# [3] = tested on: p-Her2; experiment: Immunoblotting of phosphorylated Her2 in SKBR3 cells; type: cell-based; details: FIG. 5
# From the text: The HDAC inhibition seen in many BC cell lines by CAPE and propolis results in the decrease of EGFR over-expression and induction of ER in MDA-231 cells and decrease in ER and PR expression in MCF-7 cells (FIG. 3, 4). CAPE and Propolis cause a decrease in p-Her2, the activated form of Her 2 in SKBR3 cells, likely through intracellular signaling mechanisms (FIG. 5). […] To establish that the epigenetic effects of CAPE can be recapitulated in the natural product, we determined the concentration of CAPE in propolis by HPLC. […] Furthermore, the enhanced effects of HDAC inhibition with propolis, compared to CAPE alone, make it a suitable candidate for a clinical trial in any area of oncology.
# [4] = tested on: progesterone receptor (PR); experiment: Immunoblotting of PR in MCF-7 cells; type: cell-based; details: FIG. 3
# [5] = tested on: histone deacetylases (HDAC); experiment: Western blotting of acetylated histone H3 in lymphoma cell lines; type: cell-based; details: RIVA, LY 1, SU-DHL6 lymphoma cell lines, FIG. 9
# From the text: FIG. 9 illustrates by Western Blotting CAPE induced hyperacetylation of Histone Proteins (Ac H3) in the indicated lymphoma cell lines (RIVA, LY 1, SU-DHL6).
# as §1
# [6] = tested on: estrogen receptor (ER); experiment: Immunoblotting of ER in MCF-7 cells; type: cell-based; details: FIG. 3
# [7] = tested on: MDA-MB-231 (MDA-231) cells; experiment: Cell growth of MDA-231 cells (MTT); type: cell-based, human
# Description: (§2) Nude mice bearing MDA-231 xenografts were fed CAPE-containing diets and/or treated topically with CAPE, and tumors measured twice/week. bCSC (breast CSC) were isolated from MDA-231 cells and xenografts, and propagated as mammospheres. Cell growth was analyzed using MTT and cell cycle by flow cytometry. Apoptosis was determined by co-staining bCSC with Annexin V and propidium iodide.
# [8] = tested on: normal human mammary epithelial cells; experiment: Effect on normal mammary epithelial cells; type: cell-based
# [9] = tested on: epidermal growth factor receptor (EGFR); experiment: Immunoblotting of EGFR in MDA-231 cells; type: cell-based; details: FIG. 4B
# [10] = tested on: NF-κB; details: cited from earlier work
# [11] = tested on: VEGF; details: MDA-231 cells; cited from earlier work
# [12] = tested on: endothelial cells; details: cited from earlier work
# [13] = tested on: MDA-231 xenografts; experiment: MDA-231 xenografts in nude mice; type: in vivo
# Description: as §2
# [14] = tested on: bCSC isolated from MDA-231 cells; experiment: Breast cancer stem cell (bCSC) clonal growth and self-renewal, mammospheres and soft agar; type: cell-based, human
# Description: as §2
# [15] = tested on: multidrug resistance 1 (mdr-1) gene; experiment: Gene expression microarray analysis; type: cell-based
Effect on normal cells [8],Compound,ER expression (re-expression of silenced gene) [1],HDAC inhibition (accumulation of acetylated histone proteins) [2],p-Her2 expression [3],PR expression [4],Acetylation of histone proteins (Ac H3) [5],ER expression [6],Growth of MDA-231 cells [7],EGFR expression [9],NF-κB inhibition [10],VEGF secretion [11],Tubule formation [12],Growth of MDA-231 xenografts ([13]; dietary CAPE),Tumor volume ([13]; subsequent topical treatment after dietary CAPE),bCSC clonal growth [14],bCSC and progenitor self-renewal (growth in soft agar) ([14]; pretreatment with 20 μM),mdr-1 gene expression [15]
–,"Cc1[nH]c2ccccc2c1CCNCc1ccc(/C=C/C(=O)NO)cc1 [LBH 589, reference compound]",re-expression,–,–,–,–,–,–,–,–,–,–,–,–,–,–,–
innocuous,"O=C(/C=C/c1ccc(O)c(O)c1)OCCc1ccccc1 [CAPE, caffeic acid phenethyl ester]",upregulation,HDAC inhibitors,decrease,downregulation,hyperacetylation,downregulation,inhibits growth,downregulation,inhibits,decreases,inhibits,significantly inhibited,further decreased,decreased,decreased growth in soft agar,down-regulates
